In patent publication US8802597B2, “Herbicidal pyrimidines” (E I du Pont de Nemours and Company, priority 2003, dated 2014):

Columns and labels:
Assay in all cases: Test A pre/postemergence
Type in all cases: in vivo
[1] = system: redroot pigweed (Amaranthus retroflexus)
Outline: (§1)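 After planting in loam and sand, species received test chemical as preemergence soil spray; postemergence spray went on 2–10 cm plants at 1–2 leaves at the same time. Evaluation: visual injury, ~10 d, 0 no effect to 100 complete control.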

[2] = system: morningglory (Ipomoea spp.)
Outline: as §1

[3] = system: velvetleaf (Abutilon theophrasti)
Outline: as §1

[4] = system: crabgrass (Digitaria sanguinalis)
Outline: as §1

[5] = system: giant foxtail (Setaria faberi)
Outline: as §1

[6] = system: barnyardgrass (Echinochloa crus-galli)
Outline: as §1

[7] = Postemergence, 125 g ai/ha, 0 to 100 scale (0 no effect, 100 complete control)
[8] = Postemergence, 500 g ai/ha, 0 to 100 scale (0 no effect, 100 complete control)
[9] = Preemergence, 125 g ai/ha, 0 to 100 scale where 0 is no effect and 100 is complete control, approximately ten days
[10] = Preemergence, 500 g ai/ha, 0 to 100 scale where 0 is no effect and 100 is complete control, approximately ten days

| SMILES | Plant response rating, Pigweed [1, 7] | Plant response rating, Pigweed [1, 8] | Plant response rating, Pigweed [1, 9] | Plant response rating, Pigweed [1, 10] | Plant response rating, Morningglory [2, 7] | Plant response rating, Morningglory [2, 8] | Plant response rating, Morningglory [2, 9] | Plant response rating, Morningglory [2, 10] | Plant response rating, Velvetleaf [3, 7] | Plant response rating, Velvetleaf [3, 8] | Plant response rating, Velvetleaf [3, 9] | Plant response rating, Velvetleaf [3, 10] | Plant response rating, Crabgrass [4, 7] | Plant response rating, Crabgrass [4, 8] | Plant response rating, Crabgrass [4, 9] | Plant response rating, Crabgrass [4, 10] | Plant response rating, Foxtail, Giant [5, 7] | Plant response rating, Foxtail, Giant [5, 8] | Plant response rating, Foxtail, Giant [5, 9] | Plant response rating, Foxtail, Giant [5, 10] | further results |
| --- | --- | --- | --- | --- | --- | --- | --- | --- | --- | --- | --- | --- | --- | --- | --- | --- | --- | --- | --- | --- | --- |
| CC1(C)OCC(COC(=O)c2nc(C3CC3)nc(N)c2Cl)O1 (stereo not drawn) [Compound 147] | 85 | 95 | 80 | 90 | 85 | 100 | 95 | 100 | 80 | 100 | 75 | 95 | 25 | 75 | 70 | 80 | 60 | 90 | 40 | 85 | Plant response rating, Barnyardgrass [6, 7]: 80; Plant response rating, Barnyardgrass [6, 8]: 90; Plant response rating, Barnyardgrass [6, 9]: 70; Plant response rating, Barnyardgrass [6, 10]: 85 |
| COC(=O)COC(=O)c1nc(C2CC2)nc(N)c1Cl [Compound 148] | 75 | 95 | 80 | 90 | 90 | 100 | 90 | 100 | 75 | 95 | 80 | 100 | 10 | 85 | 45 | 90 | 45 | 80 | 40 | 80 | Plant response rating, Barnyardgrass [6, 7]: 68; Plant response rating, Barnyardgrass [6, 8]: 90; Plant response rating, Barnyardgrass [6, 9]: 65; Plant response rating, Barnyardgrass [6, 10]: 85 |
| Nc1nc(C2CC2)nc(C(=O)OCC2COC(=O)O2)c1Cl (stereo not drawn) [Compound 149] | 75 | 90 | 70 | 90 | 80 | 95 | 85 | 100 | 85 | 100 | 70 | 85 | 25 | 75 | 20 | 75 | 60 | 80 | 35 | 90 | Plant response rating, Barnyardgrass [6, 7]: 65; Plant response rating, Barnyardgrass [6, 8]: 90; Plant response rating, Barnyardgrass [6, 9]: 70; Plant response rating, Barnyardgrass [6, 10]: 85 |
| Nc1nc(C2CC2)nc(C(=O)OCC2CCCO2)c1Cl (stereo not drawn) [Compound 150] | 90 | 90 | 70 | 95 | 80 | 100 | 90 | 100 | 90 | 100 | 75 | 95 | 65 | 80 | 50 | 80 | 80 | 85 | 50 | 80 | Plant response rating, Barnyardgrass [6, 7]: 80; Plant response rating, Barnyardgrass [6, 8]: 95; Plant response rating, Barnyardgrass [6, 9]: 65; Plant response rating, Barnyardgrass [6, 10]: 80 |
